In the NIST ThermoML archive (doi:10.1021/acs.jced.9b00536):

Test: refractive index (Na D-line) (dimensionless); wn = mass fraction of the nth substance listed
Settings: 100 kPa, Liquid, Standard Abbe refractometry

[Na+].[OH-] [sodium hydroxide] + O
refractive index
Settings | 308.15 K | 313.15 K | 318.15 K | 323.15 K | 328.15 K | 333.15 K
w1 = 0.2 | – | 1.3801 | 1.3795 | 1.3788 | 1.3788 | 1.3794
w1 = 0.21 | – | 1.3825 | 1.3819 | 1.3815 | 1.381 | 1.3812
w1 = 0.22 | – | 1.3851 | 1.3847 | 1.3844 | 1.3836 | 1.3835
w1 = 0.23 | – | 1.3866 | 1.3858 | 1.3853 | 1.3852 | 1.3857
w1 = 0.24 | – | 1.3886 | 1.3877 | 1.3869 | 1.3862 | 1.3847
w1 = 0.25 | – | 1.3917 | 1.391 | 1.3904 | 1.39 | 1.3894
w1 = 0.26 | – | 1.3938 | 1.3931 | 1.3926 | 1.3922 | 1.3915
w1 = 0.27 | – | 1.3955 | 1.3946 | 1.3937 | 1.3929 | 1.3923
w1 = 0.28 | – | 1.3975 | 1.3968 | 1.3961 | 1.3953 | 1.3941
w1 = 0.29 | – | 1.3999 | 1.3989 | 1.3981 | 1.397 | 1.3964
w1 = 0.3 | – | 1.4011 | 1.4002 | 1.3994 | 1.3986 | 1.3977
w1 = 0.31 | – | 1.4033 | 1.4024 | 1.4016 | 1.4008 | 1.3998
w1 = 0.32 | – | 1.4044 | 1.4036 | 1.4025 | 1.4018 | 1.4008
w1 = 0.33 | – | 1.4061 | 1.4051 | 1.4042 | 1.4033 | 1.4024
w1 = 0.34 | – | 1.4086 | 1.4077 | 1.4068 | 1.4058 | 1.4048
w1 = 0.35 | 1.4114 | 1.4105 | 1.4095 | 1.4085 | 1.4076 | 1.4066
w1 = 0.36 | 1.413 | 1.4121 | 1.4111 | 1.4102 | 1.4093 | 1.4083
w1 = 0.37 | 1.4145 | 1.4136 | 1.4126 | 1.4117 | 1.4107 | 1.4098
w1 = 0.38 | 1.4163 | 1.4154 | 1.4145 | 1.4135 | 1.4126 | 1.4116
w1 = 0.39 | 1.418 | 1.417 | 1.416 | 1.4151 | 1.4142 | 1.4133
w1 = 0.4 | 1.4196 | 1.4186 | 1.4177 | 1.4167 | 1.4159 | 1.415
w1 = 0.41 | 1.4206 | 1.4196 | 1.4186 | 1.4177 | 1.4167 | 1.4159
w1 = 0.42 | 1.4221 | 1.4212 | 1.4202 | 1.4192 | 1.4183 | 1.4174
w1 = 0.43 | 1.4236 | 1.4226 | 1.4217 | 1.4207 | 1.4198 | 1.4189
w1 = 0.44 | 1.4245 | 1.4235 | 1.4226 | 1.4217 | 1.4208 | 1.4198
w1 = 0.45 | 1.4258 | 1.425 | 1.4239 | 1.423 | 1.4221 | 1.4212
w1 = 0.46 | 1.4275 | 1.4266 | 1.4256 | 1.4247 | 1.4238 | 1.4229
w1 = 0.47 | 1.4285 | 1.4275 | 1.4266 | 1.4257 | 1.4248 | 1.4239
w1 = 0.48 | 1.4301 | 1.4292 | 1.4282 | 1.4273 | 1.4264 | 1.4255
w1 = 0.49 | 1.4309 | 1.43 | 1.4289 | 1.428 | 1.4271 | 1.4263
w1 = 0.5 | 1.4319 | 1.4311 | 1.4302 | 1.4293 | 1.4284 | 1.4276
